Experimental data as given in ChEMBL document CHEMBL3763031, “Design, synthesis and biological evaluation of monobactams as antibacterial agents against gram-negative bacteria” (2016).
≈ marks a conversion by molar mass, not a printed value.

Tests used:
[1] = test system: Salmonella typhi; assay: Antibacterial activity against beta-lactamase producing Salmonella typhi H901 after 18 hrs by agar dilution assay; assay type: functional, Salmonella enterica subsp. enterica serovar Typhi; settings: Salmonella enterica, H901, 18 h
[2] = test system: Proteus mirabilis; assay: Antibacterial activity against beta-lactamase producing Proteus mirabilis 09-1 after 18 hrs by agar dilution assay; assay type: functional; settings: 09-1, 18 h
[3] = test system: Proteus vulgaris; assay: Antibacterial activity against beta-lactamase producing Proteus vulgaris 29905 after 18 hrs by agar dilution assay; assay type: functional; settings: Proteus vulgaris, 29905, 18 h
[4] = test system: Providencia rettgeri; assay: Antibacterial activity against Providencia rettgeri 31052 after 18 hrs by agar dilution assay; assay type: functional; settings: Providencia rettgeri, 31052, 18 h
[5] = test system: Pseudomonas aeruginosa; assay: Antimicrobial activity against Pseudomonas aeruginosa PAO1 after 18 hrs by microdilution method in absence of iron; settings: PAO1, 18 h
[6] = test system: Morganella morganii; assay: Antibacterial activity against beta-lactamase producing Morganella morganii 25830 after 18 hrs by agar dilution assay; assay type: functional; settings: Morganella morganii, 25830, 18 h
[7] = test system: Serratia marcescens; assay: Antibacterial activity against beta-lactamase producing Serratia marcescens 41002 after 18 hrs by agar dilution assay; assay type: functional; settings: Serratia marcescens, 41002, 18 h
[8] = test system: Klebsiella aerogenes; assay: Antibacterial activity against beta-lactamase producing Enterobacter aerogenes 45102 after 18 hrs by agar dilution assay; assay type: functional; settings: Klebsiella aerogenes, 45102, 18 h
[9] = test system: Enterobacter cloacae; assay: Antibacterial activity against beta-lactamase producing Enterobacter cloacae 45301 after 18 hrs by agar dilution assay; assay type: functional; settings: Enterobacter cloacae, 45301, 18 h
[10] = test system: Pseudomonas aeruginosa; assay: Antimicrobial activity against Pseudomonas aeruginosa 27853 after 18 hrs by microdilution method in presence of 0.4 uM iron; assay type: functional; settings: Pseudomonas aeruginosa, 27853, 18 h
[11] = test system: Pseudomonas aeruginosa; assay: Antimicrobial activity against Pseudomonas aeruginosa 27853 after 18 hrs by microdilution method in presence of 40 uM iron; assay type: functional; settings: Pseudomonas aeruginosa, 27853, 18 h
[12] = test system: Escherichia coli; assay: Selectivity ratio of MIC for Escherichia coli BL21 to MIC for acrAB and acrEF knock-out Escherichia coli BL21; assay type: functional
[13] = test system: Klebsiella pneumoniae; assay: Antibacterial activity against ESBL negative Klebsiella pneumoniae 7 after 18 hrs by agar dilution assay; assay type: functional; settings: Klebsiella pneumoniae, 7, 18 h
[14] = test system: Klebsiella pneumoniae; assay: Antibacterial activity against NDM-1 positive Klebsiella pneumoniae BAA-2146 after 18 hrs by agar dilution assay; assay type: functional; settings: BAA-2146, 18 h
[15] = test system: Klebsiella pneumoniae; assay: Antibacterial activity against ESBL negative Klebsiella pneumoniae 09-8 after 18 hrs by agar dilution assay; assay type: functional; settings: 09-8, 18 h
[16] = test system: Pseudomonas aeruginosa; assay: Antimicrobial activity against Pseudomonas aeruginosa PAO1 after 18 hrs by microdilution method in presence of 0.4 uM iron; assay type: functional; settings: PAO1, 18 h
[17] = test system: Pseudomonas aeruginosa; assay: Antimicrobial activity against Pseudomonas aeruginosa 27853 after 18 hrs by microdilution method in presence of 4 uM iron; assay type: functional; settings: Pseudomonas aeruginosa, 27853, 18 h
[18] = test system: Pseudomonas aeruginosa; assay: Antimicrobial activity against Pseudomonas aeruginosa PAO1 after 18 hrs by microdilution method in presence of 4 uM iron; assay type: functional; settings: PAO1, 18 h
[19] = test system: Pseudomonas aeruginosa; assay: Antimicrobial activity against Pseudomonas aeruginosa PAO1 after 18 hrs by microdilution method in presence of 40 uM iron; assay type: functional; settings: PAO1, 18 h
[20] = test system: Escherichia coli; assay: Antibacterial activity against acrAB and acrEF knock-out Escherichia coli BL21 by microbroth dilution assay; assay type: functional
[21] = test system: Escherichia coli; assay: Antibacterial activity against Escherichia coli BL21 by microbroth dilution assay; assay type: functional
[22] = test system: Pseudomonas aeruginosa; assay: Antibacterial activity against BL positive Pseudomonas aeruginosa 09-14 after 18 hrs by agar dilution assay; assay type: functional; settings: 09-14, 18 h
[23] = test system: Pseudomonas aeruginosa; assay: Antibacterial activity against BL positive Pseudomonas aeruginosa PAO1 after 18 hrs by agar dilution assay; assay type: functional; settings: PAO1, 18 h
[24] = test system: Pseudomonas aeruginosa; assay: Antibacterial activity against BL positive Pseudomonas aeruginosa 27853 after 18 hrs by agar dilution assay; assay type: functional; settings: Pseudomonas aeruginosa, 27853, 18 h
[25] = test system: Klebsiella pneumoniae; assay: Antibacterial activity against ESBL positive Klebsiella pneumoniae 09-25 after 18 hrs by agar dilution assay; assay type: functional; settings: 09-25, 18 h
[26] = test system: Klebsiella pneumoniae; assay: Antibacterial activity against ESBL positive Klebsiella pneumoniae 700603 after 18 hrs by agar dilution assay; assay type: functional; settings: Klebsiella pneumoniae, 700603, 18 h
[27] = test system: Escherichia coli; assay: Antibacterial activity against ESBL negative Escherichia coli 09-20 after 18 hrs by agar dilution assay; assay type: functional; settings: 09-20, 18 h
[28] = test system: Escherichia coli; assay: Antibacterial activity against ESBL positive Escherichia coli 09-1 after 18 hrs by agar dilution assay; assay type: functional; settings: 09-1, 18 h
[29] = test system: Escherichia coli; assay: Antibacterial activity against ESBL negative Escherichia coli 1515 after 18 hrs by agar dilution assay; assay type: functional; settings: Escherichia coli, 1515, 18 h
[30] = test system: Escherichia coli; assay: Antibacterial activity against ESBL negative Escherichia coli 25922 after 18 hrs by agar dilution assay; assay type: functional; settings: Escherichia coli, 25922, 18 h
[31] = test system: Citrobacter freundii; assay: Antibacterial activity against beta-lactamase producing Citrobacter freundii 43864 after 18 hrs by agar dilution assay; assay type: functional; settings: Citrobacter freundii, 43864, 18 h
[32] = test system: Pseudomonas aeruginosa; assay: microbe, parasite or virus in culture; settings: Pseudomonas aeruginosa, 27853, 18 h
Description: Antimicrobial activity against Pseudomonas aeruginosa 27853 after 18 hrs by microdilution method in absence of iron

Row | SMILES | MIC [1] [µg/mL] | MIC [2] [µg/mL] | MIC [3] [µg/mL] | MIC [4] [µg/mL] | MIC [5] [µg/mL] | MIC [6] [µg/mL] | MIC [7] [µg/mL] | MIC [8] [µg/mL] | MIC [9] [µg/mL] | MIC [10] [µg/mL] | MIC [11] [µg/mL] | Selectivity ratio [12] | MIC [13] [µg/mL] | MIC [14] [µg/mL] | MIC [15] [µg/mL] | MIC [16] [µg/mL] | MIC [17] [µg/mL] | MIC [18] [µg/mL] | MIC [19] [µg/mL] | MIC [20] [µg/mL] | other results
1 | CC1(C)[C@H](NC(=O)/C(=N\OCc2cccnc2)c2csc(N)n2)C(=O)N1S(=O)(=O)O | 32 (≈ 70.4 µM) | 32 (≈ 70.4 µM) | 0.25 (≈ 0.55 µM) | 0.03 (≈ 0.066 µM) | > 128 | 0.5 (≈ 1.1 µM) | 8 (≈ 17.6 µM) | 8 (≈ 17.6 µM) | 4 (≈ 8.8 µM) | > 128 | > 128 | >16 | 4 (≈ 8.8 µM) | 32 (≈ 70.4 µM) | 8 (≈ 17.6 µM) | > 128 | > 128 | > 128 | > 128 | 0.5 (≈ 1.1 µM) | MIC [21]: 32 µg/mL (≈ 70.4 µM); MIC [22]: > 128 µg/mL; MIC [23]: 128 µg/mL (≈ 282 µM); MIC [24]: > 128 µg/mL; MIC [25]: 8 µg/mL (≈ 17.6 µM); MIC [26]: 64 µg/mL (≈ 141 µM); MIC [27]: 4 µg/mL (≈ 8.8 µM); MIC [28]: 4 µg/mL (≈ 8.8 µM); MIC [29]: 16 µg/mL (≈ 35.2 µM); MIC [30]: 8 µg/mL (≈ 17.6 µM); MIC [31]: 4 µg/mL (≈ 8.8 µM); MIC [32]: > 128 µg/mL
2 | CCN(CC)CC.C[C@H]1[C@H](NC(=O)/C(=N\OCc2ccc(C(=O)N/N=C/c3ccccc3O)cc2)c2csc(N)n2)C(=O)N1S(=O)(=O)O (relative stereo) | 0.5 | 8 | 0.25 | ≤ 0.03 | > 128 | 2 | 8 | 2 | 2 | 128 | > 128 | >16 | 2 | > 64 | 16 | 128 | 128 | 128 | > 128 | 2 | MIC [21]: 64 µg/mL; MIC [22]: 4 µg/mL; MIC [23]: 4 µg/mL; MIC [24]: 8 µg/mL; MIC [25]: > 64 µg/mL; MIC [26]: > 64 µg/mL; MIC [27]: 64 µg/mL; MIC [28]: 64 µg/mL; MIC [29]: 2 µg/mL; MIC [30]: 4 µg/mL; MIC [31]: 4 µg/mL; MIC [32]: 128 µg/mL
